In patent US20260139245A1, “METHODS AND USES OF RIBONUCLEASE INHIBITORS” (Sequrna AB, priority 2022, published 2026):
Values joined by “and” are separate entries in the source; they are usually repeats but may differ in a detail not shown here. Identical values can stand only once.

Test system: RNase
Assay: Smart-seq2 (SS2) cDNA library generation and sequencing from 100 pg mouse RNA with the agent replacing recombinant RNase inhibitor in lysis buffer
Assay type: biochemical
Conditions: for sustained RNA stability during cDNA library generation: SS2 protocol for bulk RNA; for quality of the sequencing data compared with standard Smart-seq2 utilizing recombinant RNAse inhibitor (TaKaRa): agent used in its optimal range; for optimal range of alternative inhibitor (cDNA size distribution and yield similar to standard Smart-seq2): concentration in 1× Smart-seq2 lysis buffer, 100 pg mouse RNA
Description: We started by systematically testing ranges of PVSA concentrations in the scRNAseq protocol Smart-seq2 (SS2) (5), which provides full-length read coverage across transcripts, enabling evaluation of polymerase processivity. We prepared lysis buffer containing 0-600 μg/mL of PVSA (resulting in 0-270 μg/mL in the following first-strand reaction) and 100 pg spiked mouse RNA, performed SS2 library amplification, and evaluated resulting cDNA by capillary electrophoresis (Methods).
To examine the information yield and quality of PVSA-generated RNA-seq libraries, we sequenced SS2 libraries generated in presence of PVSA or RI (TaKaRa) and downsampled the resulting reads to allow even comparison (Methods). We analyzed library quality metrics in terms of genomic and transcriptomic mappability, base substitution rates, insertion and deletions (indels), likelihood of mismatches within the read, and average indel length.
Bulk RNA was extracted from cultured mouse tail tip fibroblasts using TRIzol (Invitrogen). For all bulk RNAseq experiments 100 pg of RNA was used as input, if is not otherwise specified, and was added to 96-well plates containing either Smart-seq2 or Smart-seq3 standard lysis buffer or lysis buffer with varying concentrations of polyvinyl sulfonic acid (Merck, cat no. 278424). Smart-seq2 lysis buffer composition was 0.1% Triton X-100, 2.5 mM dNTP/each, […] oligo-dT (5′-[…]30VN-3′), and 4 U recombinant inhibitor (TaKaRa) or PVSA of the concentration specified for each condition; total buffer volume 4.5 ul. Smart-seq3 lysis buffer composition was 0.1% Triton X-100, 10% PEG 8000, 1 mM dNTP/each, and 1 uM Smart-seq3 oligo-dT (5′-biotin-[…] T30VN-3′), and 1 U recombinant inhibitor (TaKaRa) or PVSA of the concentration specified for each condition; total buffer volume 2 ul. For single-cell experiments, cultured HEK293FT, spleen, or liver cells in 0.5% BSA in PBS were sorted into 96 well plates containing lysis buffer using an SH800S (Sony). Single cell sorted plates were briefly centrifuged and kept at −80° C. until they were further processed. Plates containing lysis buffer and input material were then processed according to the Smart seq2 and Smart-seq3 protocols (Picelli, S. et al., 2014 and Hagemann-Jensen, M. et al., 2020), except without addition of recombinant inhibitor in the first-strand reaction mix in reactions where PVSA was used. Smart-seq2 cDNA library generation: Cell were lysed at 72° C. for 3 min in a Bioer Life ECO thermocycler and placed on ice prior to first-strand synthesis. The following reverse transcriptase reaction contained 1× Superscript II buffer, 5 mM DTT, 1M betaine, 10 mM MgCl2, 1 uM Smart-seq2 TSO (5′-[…]rGrG+G-3′), 10 U Superscript II, and 10 U recombinant inhibitor (TaKaRa) for samples containing biological inhibitor; total reaction volume 10 ul. RT thermocycles were 42° C. for 90 min, followed by 10 cycles of 42° C. for 2 min and 50° C. for 2 min. The following cDNA amplification reaction contained 1× KAPA HiFi HotStart Ready Mix and 80 nM ISPCR primers (5′-[…]-3′); total reaction volume 25 ul. Thermocycles for Smart-seq2 cDNA amplification were 98° C. for 3 min, followed by either 18 (bulk), 20 (HEK), 21 (liver) or 22 (spleen) cycles of 98° C. for 20 sec, 67° C. for 15 sec, and 72° C. for 6 min, followed by a final incubation at 72° C. for 5 min. Smart-seq3 cDNA library generation: Cell were lysed at 72° C. for 10 min and placed on ice prior to first-strand synthesis.

| Compound | sustained RNA stability during cDNA library generation | optimal concentration of alternative inhibitor (Smart-seq2 lysis buffer, 100 pg mouse fibroblast RNA) | quality of the sequencing data compared with standard Smart-seq2 utilizing recombinant RNAse inhibitor (TaKaRa) | optimal range of alternative inhibitor (cDNA size distribution and yield similar to standard Smart-seq2) |
| --- | --- | --- | --- | --- |
| O=S(=O)(O)CCN1CCOCC1 [MES, 2-(N-morpholino)ethanesulfonic acid] | did | 6 to 8 mg/mL | on par | 4000 to 12000 µg/mL |
| C=CP(=O)(O)O [VPA, vinylphosphonic acid, reference compound] | did not sustain RNA stability during cDNA library generation | – | – | – |
| C=CS(=O)(=O)O [VSA, Vinylsulfonic acid] | did | – | on par | 500 to 2000 µg/mL |
| Dextran sulfate | did | – | on par | 1 to 2.5 µg/mL and 1.5 to 2.5 µg/mL |
| Fucoidan | – | – | on par | 5 to 20 µg/mL |
| Heparin [reference compound] | did | – | on par | 2 to 10 µg/mL |
| Sodium alginate | did | – | on par | 200 to 400 µg/mL and 100 to 400 µg/mL |
